Results on eleven compounds are retold here after patent US9241943B2, “Oxathiazine derivatives as antibacterial and anticancer agents” (GEISTLICH PHARMA AG, priority 2012, dated 2016).

≈ marks a conversion by molar mass, not a printed value.

Data set [1] concerns cancers identified herein. Description: Administration to patients having cancers (Example 5). The class given is in vivo, human. To be noted: Example 5, written in present tense.
Data set [2] relates to human glioma cell line LN-229. Description: Cytotoxicity assay (crystal violet) in LN-229 cells. The class given is cell-based. To be noted: 24 h, high values correspond to high cell viability. The procedure: Cell lines: The human glioma cell line LN-229 was used as described previously (Rodak et al. 2005) as well as the human colon adenocarcinoma cell line SW480.
Cytotoxicity assay: Dissociated LN-229 cells were seeded into 96-well plates at a density of 10^4 cells per well in 100 μl of culture medium. Approximately 24 h later, when the cells had reached 70-80% confluency, the medium was changed and treatment with compound #2250 (4.0-1000 μg/ml), taurolidine (4.0-1000 μg/ml) or standard medium was started. Triplicate cultures were prepared for each sample. After 24 h of incubation at […], the remaining adherent viable cells were stained using crystal violet as described (Rodack et al. 2005). Cell viability was determined by measuring the absorbancy at 540 nm. The results are expressed as killing rate given by the difference between 100% of cells and percentage of cells surviving. EC50 values correspond to the concentration inducing 50% cell death.

For data set [3], the system named is human glioma cell line LN-229. The data set is described as above. The class given is cell-based.
Data set [4] relates to human glioblastoma bulk cells. To be noted: cited from earlier work.
The subject of data set [5] is murine SMA560 glioma cancer stem cells (CSC). Description: Cytotoxicity assay in murine SMA560 glioma cancer stem cells. Format: cell-based, mouse. To be noted: for sensitivity of CSCs relative to corresponding glioma bulk cells, based on EC50: murine SMA 560 CSCs vs bulk cells. The procedure: (§1) Tissue samples from high grade gliomas WHO grade IV from newly diagnosed patients (medium age of 54±10 years) were minced mechanically, digested enzymatically and the dissociated cells were filtered. The isolated tumor cells were cultured as bulk cells. Cancer Stem Cells (CSCs) were isolated by the formation of neurospheres under neurosphere conditions (using neurobasal medium) from the murine SMA 560 glioma cell line or from freshly isolated human glioblastoma cells.
(§2) Bulk glioma tumor cells were cultured and incubated with taurolidine or taurultam for 24h or 48h as described previously (Rodak et al., J. Neurosurg. 102, 1055-1068, 2005). CSCs were cultured for 7 days and subsequently exposed to taurolidine, taurultam or temozolamide for 24 hours. The number of remaining adherent cells were stained (crystal violet or Alamar Blue) and quantified by absorbance measurements (540 nm). Cell survival was expressed as the percentage of cells surviving relative to the number of cells surviving in untreated control cultures. The results are given as % killing rate or EC50 as the dose required for half-maximal cytotoxicity.
Mouse CSCs were generated from the SMA560 glioma cell line and cultured for 7 days. The CSCs were treated with the same concentration of taurolidine and taurultam as above and cytotoxicity was determined after 24 hours.

Data set [6] concerns murine SMA 560 bulk glioma cells. Description: Cytotoxicity assay in murine SMA 560 bulk glioma cells. Format: cell-based, mouse. The protocol: as §1
Bulk glioma tumor cells were cultured and incubated with taurolidine or taurultam for 24h or 48h as described previously (Rodak et al., J. Neurosurg. 102, 1055-1068, 2005). CSCs were cultured for 7 days and subsequently exposed to taurolidine, taurultam or temozolamide for 24 hours. The number of remaining adherent cells were stained (crystal violet or Alamar Blue) and quantified by absorbance measurements (540 nm). Cell survival was expressed as the percentage of cells surviving relative to the number of cells surviving in untreated control cultures. […]
The mouse SMA560 glioma cell line was used to provide tumor bulk cells and CSCs. Following incubation of SMA560 bulk cells with various concentrations of taurolidine and taurultam (6.25, 12.5, 25, 50, 100, 200 μg/ml), cytotoxicity was determined after 24 h and 48 h of incubation.

In data set [7] the test system is cancer stem cells (CSC) derived from four glioblastoma patients. The class given is cell-based, human. The protocol:
as §1, §2
CSCs were isolated from glioblastoma tissue resected from four patients. The same range of concentrations of taurolidine and taurultam was applied as above and the cytotoxicity was measured after 24 hours of incubation with drug. […]

The conditions of data set [8]: measured in patients; cited from earlier work.

Turning to `CN1COCCS1(=O)=O` [Compound 2255], the “efficacy in treating cancers in patients” value in data set [1] is listed as “effective in treating such cancers”.
Consider `O=S1(=O)CCNCO1` [A1], for which the “efficacy in treating cancers in patients” value in data set [1] was “effective in treating such cancers”.
Regarding `O=S1(=O)CCOCN1CN1COCCS1(=O)=O` [Compound 2245], in data set [1], the “efficacy in treating cancers in patients” value is listed as “effective in treating such cancers”.
For `O=S1(=O)CCOCN1` [Compound 2250, Tetrahydro1,4,5-oxathiazin-4-dioxid], the “OD (absorbance at 540 nm)” value in data set [2] (4 μg/ml) is listed as 1.477; in data set [2] (8 μg/ml) it was 1.527; in data set [2] (15.5 μg/ml), 1.482; in data set [2] (31 μg/ml), 1.482; in data set [2] (62.5 μg/ml), 0.372; in data set [2] (125 μg/ml), 0.199. The “OD (absorbance at 540 nm)” value in data set [2] (250 μg/ml) is on record as 0.120; in data set [2] (500 μg/ml) it was 0.141; in data set [2] (1000 μg/ml) it was 0.189. In data set [1], the “efficacy in treating cancers in patients” value is given as “effective in treating such cancers”. The “effect on tumor cell morphology” value in data set [3] is “causes blebbing of tumor cells”.
What is called EC50 is the concentration needed to bring the measured effect to its halfway point. Consider `O=S1(=O)CCN(CN2CCS(=O)(=O)NC2)CN1` [Taurolidine, taurolidine], for which the EC50 cytotoxicity in data set [4] is around 50 µg/mL (≈ 176 µM). In addition, the “OD (absorbance at 540 nm)” value in data set [2] (4 μg/ml) was 1.530; in data set [2] (8 μg/ml), 1.478; in data set [2] (15.5 μg/ml) it was 1.434; in data set [2] (31 μg/ml), 1.132; in data set [2] (62.5 μg/ml), 0.317; in data set [2] (125 μg/ml) it was 0.305. Moreover, the “OD (absorbance at 540 nm)” value turned out to be 0.165 in data set [2] (250 μg/ml), 0.098 in data set [2] (500 μg/ml) and 0.109 in data set [2] (1000 μg/ml). Also, in data set [5], the “sensitivity of CSCs relative to corresponding glioma bulk cells, based on EC50” value was “about 3 fold”. The compound further came in with a concentration for a half-maximal effect (EC50) in data set [6] (Mus musculus, SMA 560 bulk cells, no major difference between 24 h and 48 h) of 34.6 µg/mL (≈ 122 µM).
As to `O=S1(=O)CCN(CN2CCS(=O)(=O)OC2)CO1` [B3], the “efficacy in treating cancers in patients” value in data set [1] is reported as “effective in treating such cancers”.
Same read-out and setting: in the case of `O=S1(=O)CCN(CN2CCS(=O)(=O)OC2)CN1` [B2] it was “effective in treating such cancers”.
Turning to `O=S1(=O)CCNCN1` [Taurultam, taurultam], the EC50 cytotoxicity is around 50 µg/mL (≈ 367 µM) in data set [4], 10 µg/mL (≈ 73.4 µM) in data set [5] and 19.3 µg/mL (≈ 142 µM) in data set [6]. Moreover, the “sensitivity of CSCs relative to corresponding glioma bulk cells, based on EC50” value in data set [5] is recorded as around 2 fold.
For the compound `O=S1(=O)CCN(CN2COCCS2(=O)=O)CN1` [B1], the “efficacy in treating cancers in patients” value in data set [1] is “effective in treating such cancers”.
With `Cn1nnc2c(C(N)=O)ncn2c1=O` [Temozolamide, temozolamide], in data set [7], the “Cytotoxicity EC50 24 h, Mean ± SD” value worked out at 68.5 ± 26 µg/mL. For the same compound, the peak plasma levels in data set [8] is 13.7 µg/mL.
Take `O=S1(=O)CCOCO1` [A3]: in data set [1], the “efficacy in treating cancers in patients” value was “effective in treating such cancers”.
